Data taken from ChEMBL document CHEMBL1121945, “Nitrogen bridgehead compounds. 18. New antiallergic 4H-pyrido[1,2-a]pyrimidin-4-ones. 1” (J Med Chem, 1982).

Assays:
Rattus norvegicus [1] = species: Rattus norvegicus; assay: Inhibition of histamine release from sensitized rat mast cells in vitro; format: functional
Rattus norvegicus [2] = assay: Inhibition of rat passive cutaneous anaphylaxis (PCA) reaction after intravenous administration; format: functional; settings: for ED50: Rattus norvegicus, iv, read-out: ID50 (the source's name)
Rattus norvegicus [3] = assay: Inhibition of rat passive cutaneous anaphylaxis (PCA) reaction was determined after oral administration; format: functional; settings: for ED50: read-out: ID50 (the source's name)
Rattus norvegicus [4] = species: Rattus norvegicus; assay: The compound was tested for its ability to inhibit histamine release from sensitized rat mast cells in vitro; format: functional, cell-based
[5] = Rattus norvegicus, Mast cell, read-out: EC50

| SMILES | EC50 (Rattus norvegicus [1]; [5]) | ED50 (Rattus norvegicus [2]) | ED50 (Rattus norvegicus [3]; Rattus norvegicus, po) | other results |
| --- | --- | --- | --- | --- |
| CC1CC/C(=N\Nc2ccccc2F)c2ncc(C(=O)O)c(=O)n21 (configuration not stated) | 1.2 µM | 5 µmol/kg | > 1000 µmol/kg | – |
| CC1CCn2c(ncc(C(=O)O)c2=O)/C1=N/Nc1ccccc1 (configuration not stated) | 5.4 µM | 32 µmol/kg | > 320 µmol/kg | – |
| CC1CC/C(=N\Nc2ccccc2)c2nccc(=O)n21 (configuration not stated) | – | – | > 100 µmol/kg | – |
| Cc1cccc(N/N=C2\CCC(C)n3c2ncc(C(=O)O)c3=O)c1 (configuration not stated) | 72.9 µM | 0.4 µmol/kg | 72.5 µmol/kg | – |
| CC1CC/C(=N\Nc2ccccc2C(F)(F)F)c2ncc(C(=O)O)c(=O)n21 (configuration not stated) | – | – | > 1000 µmol/kg | – |
| CC1CC/C(=N\Nc2ccc(O)cc2)c2ncc(C(=O)O)c(=O)n21 (configuration not stated) | 1.3 µM | 1.7 µmol/kg | > 100 µmol/kg | – |
| CC1CC/C(=N\Nc2cccc(C(=O)O)c2)c2nccc(=O)n21 (configuration not stated) | – | > 100 µmol/kg | > 100 µmol/kg | EC50 (Rattus norvegicus [1]; mast cells): 655 uM l-1 |
| CC1CC/C(=N\Nc2cccc(C(F)(F)F)c2)c2ncc(C(=O)O)c(=O)n21 (configuration not stated) | – | – | > 1000 µmol/kg | – |
| CCOc1ccccc1N/N=C1\CCC(C)n2c1ncc(C(=O)O)c2=O (configuration not stated) | – | – | > 1000 µmol/kg | – |
| CCOC(=O)c1cccc(N/N=C2\CCC(C)n3c2ncc(C(=O)O)c3=O)c1 (configuration not stated) | – | – | > 100 µmol/kg | – |
| CC(C)c1ccc(N/N=C2\CCC(C)n3c2ncc(C(=O)O)c3=O)cc1 (configuration not stated) | 1.2 µM | 2.4 µmol/kg | > 100 µmol/kg | – |
| CC1CC/C(=N\Nc2ccc(C3CC3)cc2)c2ncc(C(=O)O)c(=O)n21 (configuration not stated) | 1 µM | 41.1 µmol/kg | 100 µmol/kg | – |
| CC1CC/C(=N\Nc2ccc(C(F)(F)F)cc2)c2ncc(C(=O)O)c(=O)n21 (configuration not stated) | 0.28 µM | 38.6 µmol/kg | > 1000 µmol/kg | – |
| CC1CC/C(=N\Nc2ccccc2)c2ncc(C(N)=O)c(=O)n21 (configuration not stated) | – | – | > 1000 µmol/kg | – |
| CC1CC/C(=N\Nc2ccc(C(=O)O)cc2)c2ncc(C(=O)O)c(=O)n21 (configuration not stated) | – | 7.6 µmol/kg | – | EC50 (Rattus norvegicus [1]; mast cells): 1000 uM l-1 |
| COc1ccccc1N/N=C1\CCC(C)n2c1ncc(C(=O)O)c2=O (configuration not stated) | – | – | > 1000 µmol/kg | – |
| CCOc1ccc(N/N=C2\CCC(C)n3c2ncc(C(=O)O)c3=O)cc1 (configuration not stated) | 17.6 µM | 1.6 µmol/kg | > 100 µmol/kg | – |
| CC1C/C(=N\Nc2ccccc2)c2ncc(C(=O)O)c(=O)n2C1 (configuration not stated) | 13 µM | 5.7 µmol/kg | > 320 µmol/kg | – |
| CC1CC/C(=N\Nc2cccc(Cl)c2)c2ncc(C(=O)O)c(=O)n21 (configuration not stated) | – | 0.6 µmol/kg | > 100 µmol/kg | EC50 (Rattus norvegicus [1]; mast cells): 311 uM l-1 |
| CC1CC/C(=N\Nc2ccc(Cl)cc2)c2ncc(C(=O)O)c(=O)n21 (configuration not stated) | – | 0.5 µmol/kg | – | EC50 (Rattus norvegicus [4]; Mast cell): 16.6 µM; ED50 (Rattus norvegicus [3]): > 100 µmol/kg |
| CC1CCC(=NNc2ccccc2)c2ncc(C(=O)O)c(=O)n21 (configuration not stated) | 2.2 µM | 0.6 µmol/kg | 1.2 µmol/kg | – |
| CC(=O)c1ccccc1N/N=C1\CCC(C)n2c1ncc(C(=O)O)c2=O (configuration not stated) | – | – | > 1000 µmol/kg | – |
| CC1CC/C(=N\Nc2ccc(CC(=O)O)cc2)c2ncc(C(=O)O)c(=O)n21 (configuration not stated) | 3.4 µM | 60.9 µmol/kg | > 100 µmol/kg | – |

| SMILES | EC50 (Rattus norvegicus [1]; [5]) | ED50 (Rattus norvegicus [2]) | ED50 (Rattus norvegicus [3]; Rattus norvegicus, po) | other results |
| --- | --- | --- | --- | --- |
| CC1CC/C(=N\Nc2cccc(Br)c2)c2ncc(C(=O)O)c(=O)n21 (configuration not stated) | 6.7 µM | 0.4 µmol/kg | > 320 µmol/kg | – |
| CC1CCCc2ncc(C(=O)O)c(=O)n21 (configuration not stated) | – | 240 µmol/kg | – | – |
| Cc1ccc(N/N=C2\CCC(C)n3c2ncc(C(=O)O)c3=O)cc1 (configuration not stated) | 0.28 µM | 1.3 µmol/kg | > 1000 µmol/kg | – |
| CC1CC/C(=N\Nc2ccc(I)cc2)c2ncc(C(=O)O)c(=O)n21 (configuration not stated) | – | – | > 1000 µmol/kg | – |
| CC1CC/C(=N\Nc2ccc([N+](=O)[O-])cc2)c2ncc(C(=O)O)c(=O)n21 (configuration not stated) | 8.9 µM | 0.8 µmol/kg | > 320 µmol/kg | – |
| Cc1ccccc1N/N=C1\CCC(C)n2c1ncc(C(=O)O)c2=O (configuration not stated) | – | – | > 1000 µmol/kg | – |
| CC1CC/C(=N\Nc2ccc(C(=O)O)cc2)c2nccc(=O)n21 (configuration not stated) | – | > 100 µmol/kg | > 100 µmol/kg | EC50 (Rattus norvegicus [1]; mast cells): 450 uM l-1 |
| CC(=O)c1ccc(N/N=C2\CCC(C)n3c2ncc(C(=O)O)c3=O)cc1 (configuration not stated) | 8.1 µM | 9.5 µmol/kg | > 100 µmol/kg | – |
| CC(=O)c1cccc(N/N=C2\CCC(C)n3c2ncc(C(=O)O)c3=O)c1 (configuration not stated) | – | – | > 1000 µmol/kg | – |
| CC1CC/C(=N\Nc2ccc(Br)cc2)c2ncc(C(=O)O)c(=O)n21 (configuration not stated) | 2 µM | 0.8 µmol/kg | > 100 µmol/kg | – |
| CC1CC/C(=N\Nc2ccccc2Br)c2ncc(C(=O)O)c(=O)n21 (configuration not stated) | – | – | > 320 µmol/kg | – |
| CCOc1ccc(N/N=C2\CC[C@H](C)n3c2ncc(C(=O)O)c3=O)cc1 | 19.2 µM | 100 µmol/kg | > 100 µmol/kg | – |
| C[C@H]1CC/C(=N\Nc2ccc(O)cc2)c2ncc(C(=O)O)c(=O)n21 | 26.2 µM | 110 µmol/kg | > 100 µmol/kg | – |
| CCOc1ccc(N/N=C2\CC[C@@H](C)n3c2ncc(C(=O)O)c3=O)cc1 | 1 µM | 0.2 µmol/kg | > 100 µmol/kg | – |
| C[C@@H]1CC/C(=N\Nc2ccc(O)cc2)c2ncc(C(=O)O)c(=O)n21 | 15.6 µM | 0.14 µmol/kg | > 100 µmol/kg | – |
| CCOC(=O)c1cnc2n(c1=O)C(C)CC/C2=N\Nc1cccc(C(=O)O)c1 (configuration not stated) | – | 100 µmol/kg | – | EC50 (Rattus norvegicus [1]; mast cells): 740 uM l-1 |
| O=C(O)c1cnc2n(c1=O)CCC/C2=N\Nc1ccccc1 | 2.9 µM | 31.6 µmol/kg | > 100 µmol/kg | – |
| CC1CC/C(=N\Nc2cccc(I)c2)c2ncc(C(=O)O)c(=O)n21 (configuration not stated) | – | – | > 1000 µmol/kg | – |
| CCCCc1ccc(N/N=C2\CCC(C)n3c2ncc(C(=O)O)c3=O)cc1 (configuration not stated) | 0.7 µM | 7.8 µmol/kg | 100 µmol/kg | – |
| CCOc1cccc(N/N=C2\CCC(C)n3c2ncc(C(=O)O)c3=O)c1 (configuration not stated) | 4.7 µM | 0.2 µmol/kg | > 100 µmol/kg | – |
| CCOC(=O)c1cnc2n(c1=O)C(C)CC/C2=N\Nc1ccccc1C(=O)O (configuration not stated) | 100 µM | 10 µmol/kg | – | – |
| COc1ccc(N/N=C2\CCC(C)n3c2ncc(C(=O)O)c3=O)cc1 (configuration not stated) | – | 0.8 µmol/kg | 7.6 µmol/kg | EC50 (Rattus norvegicus [1]; mast cells): 128 uM l-1 |
| CC1CC/C(=N\Nc2cccc(C(=O)O)c2)c2ncc(C(=O)O)c(=O)n21 (configuration not stated) | – | 26.6 µmol/kg | > 100 µmol/kg | EC50 (Rattus norvegicus [4]; Mast cell): 10 µM |

| SMILES | EC50 (Rattus norvegicus [1]; [5]) | ED50 (Rattus norvegicus [2]) | ED50 (Rattus norvegicus [3]; Rattus norvegicus, po) | other results |
| --- | --- | --- | --- | --- |
| CCOC(=O)c1cnc2n(c1=O)C(C)CC/C2=N\Nc1ccccc1 (configuration not stated) | – | – | > 1000 µmol/kg | – |
| CC1CC/C(=N\Nc2ccccc2O)c2ncc(C(=O)O)c(=O)n21 (configuration not stated) | – | 0.26 µmol/kg | > 100 µmol/kg | EC50 (Rattus norvegicus [1]; mast cells): 208 uM l-1 |
| CC1CC/C(=N\Nc2ccccc2Cl)c2ncc(C(=O)O)c(=O)n21 (configuration not stated) | – | – | > 1000 µmol/kg | – |
| CC1CC/C(=N\Nc2ccccc2)c2ncc(C(=O)NN)c(=O)n21 (configuration not stated) | – | – | > 1000 µmol/kg | – |
| CC1CC/C(=N\Nc2ccc(-c3ccccc3)cc2)c2ncc(C(=O)O)c(=O)n21 (configuration not stated) | 4.4 µM | 1.1 µmol/kg | > 100 µmol/kg | – |
| CC1CC/C(=N\Nc2ccccc2)c2ncc(C#N)c(=O)n21 (configuration not stated) | – | – | > 1000 µmol/kg | – |
| CNC(=O)c1ccc(N/N=C2\CCC(C)n3c2ncc(C(=O)O)c3=O)cc1 (configuration not stated) | 100 µM | 9.6 µmol/kg | > 100 µmol/kg | – |
| CC1CC/C(=N\Nc2cccc([N+](=O)[O-])c2)c2ncc(C(=O)O)c(=O)n21 (configuration not stated) | – | 0.5 µmol/kg | – | ED50 (Rattus norvegicus [3]): > 100 µmol/kg |
| CC1CC/C(=N\Nc2ccc(F)cc2)c2ncc(C(=O)O)c(=O)n21 (configuration not stated) | 1.2 µM | 12.2 µmol/kg | > 1000 µmol/kg | – |
| CCOC(=O)c1cnc2n(c1=O)C(C)CC/C2=N\Nc1ccc(C(=O)O)cc1 (configuration not stated) | 66 µM | 100 µmol/kg | – | – |
| CC1CC/C(=N\Nc2ccccc2I)c2ncc(C(=O)O)c(=O)n21 (configuration not stated) | – | – | > 1000 µmol/kg | – |
| CC1CC/C(=N\Nc2ccccc2C(=O)O)c2nccc(=O)n21 (configuration not stated) | 100 µM | > 100 µmol/kg | > 100 µmol/kg | – |
| CC1CC/C(=N\Nc2ccccc2)c2ncc(CC(=O)O)c(=O)n21 (configuration not stated) | – | 100 µmol/kg | – | EC50 (Rattus norvegicus [1]; mast cells): 430 uM l-1 |
| CC1CC/C(=N\Nc2ccccc2CCO)c2ncc(C(=O)O)c(=O)n21 (configuration not stated) | – | 10.8 µmol/kg | > 100 µmol/kg | EC50 (Rattus norvegicus [1]; mast cells): 330 uM l-1 |
| CCc1ccc(N/N=C2\CCC(C)n3c2ncc(C(=O)O)c3=O)cc1 (configuration not stated) | – | – | > 1000 µmol/kg | – |
| CC1CC/C(=N\Nc2ccccc2[N+](=O)[O-])c2ncc(C(=O)O)c(=O)n21 (configuration not stated) | – | – | > 1000 µmol/kg | – |
| CC1CCC(=NNc2ccccc2C(=O)O)c2ncc(C(=O)O)c(=O)n21 (single isomer, unassigned; (+)) | – | – | – | EC50 (Rattus norvegicus [1]; mast cells): 1100 uM l-1; ID50 (Rattus norvegicus [2]): 37.1 µM/kg |
| C[C@H]1CCC(=NNc2ccccc2)c2ncc(C(=O)O)c(=O)n21 (single isomer, unassigned; (+)) | – | – | – | EC50 (Rattus norvegicus [1]; mast cells, read-out: EC50): 0.6 µM; ID50 (Rattus norvegicus [2]): 0.3 µM/kg; ID50 (Rattus norvegicus [3]): 1 µM/kg |
| C[C@H]1CCC(=NNc2ccccc2)c2ncc(C(=O)O)c(=O)n21 (single isomer, unassigned; (-)) | – | – | – | EC50 (Rattus norvegicus [1]; mast cells, read-out: EC50): 8 µM; ID50 (Rattus norvegicus [2]): 54.8 µM/kg; ID50 (Rattus norvegicus [3]): >100 µM/kg |
| CC1CCC(=NNc2ccccc2C(=O)O)c2ncc(C(=O)O)c(=O)n21 (stereo in doubt; 56) | – | – | – | EC50 (Rattus norvegicus [4]): 1300 uM l-1; ID50 (Rattus norvegicus [2]): 0.48 µM/kg |
| CC1CCC(=NNc2ccccc2C(=O)O)c2ncc(C(=O)O)c(=O)n21 (stereo in doubt; 57) | – | – | > 100 µmol/kg | EC50 (Rattus norvegicus [1]; mast cells): 569 uM l-1; ID50 (Rattus norvegicus [2]): 0.5 µM/kg |
| O=C(O)c1cc(=O)c2c(OCC(O)COc3cccc4oc(C(=O)O)cc(=O)c34)cccc2o1 [CROMOLYN SODIUM] | – | 1 µmol/kg | – | – |
